The source of these data is ChEMBL document CHEMBL1152904, “Synthesis and characterization of a BODIPY-labeled derivative of Soraphen A that binds to acetyl-CoA carboxylase” (Bioorg Med Chem Lett, 2009).

One may read the pKd as the Kd on a negative log10 scale, so that one unit is a factor of ten.

The target of this assay is Acetyl-CoA carboxylase 2 (Homo sapiens, UniProt O00763). As to the kind of experiment: Binding affinity to human His-tagged acetyl-CoA-carboxylase biotin carboxylase domain. The conditions noted are these: read-out: Kd(app).

pKd: −log10 of the molar value.

Sequence of Acetyl-CoA carboxylase 2 (O00763 whole entry, the tested form may be a part): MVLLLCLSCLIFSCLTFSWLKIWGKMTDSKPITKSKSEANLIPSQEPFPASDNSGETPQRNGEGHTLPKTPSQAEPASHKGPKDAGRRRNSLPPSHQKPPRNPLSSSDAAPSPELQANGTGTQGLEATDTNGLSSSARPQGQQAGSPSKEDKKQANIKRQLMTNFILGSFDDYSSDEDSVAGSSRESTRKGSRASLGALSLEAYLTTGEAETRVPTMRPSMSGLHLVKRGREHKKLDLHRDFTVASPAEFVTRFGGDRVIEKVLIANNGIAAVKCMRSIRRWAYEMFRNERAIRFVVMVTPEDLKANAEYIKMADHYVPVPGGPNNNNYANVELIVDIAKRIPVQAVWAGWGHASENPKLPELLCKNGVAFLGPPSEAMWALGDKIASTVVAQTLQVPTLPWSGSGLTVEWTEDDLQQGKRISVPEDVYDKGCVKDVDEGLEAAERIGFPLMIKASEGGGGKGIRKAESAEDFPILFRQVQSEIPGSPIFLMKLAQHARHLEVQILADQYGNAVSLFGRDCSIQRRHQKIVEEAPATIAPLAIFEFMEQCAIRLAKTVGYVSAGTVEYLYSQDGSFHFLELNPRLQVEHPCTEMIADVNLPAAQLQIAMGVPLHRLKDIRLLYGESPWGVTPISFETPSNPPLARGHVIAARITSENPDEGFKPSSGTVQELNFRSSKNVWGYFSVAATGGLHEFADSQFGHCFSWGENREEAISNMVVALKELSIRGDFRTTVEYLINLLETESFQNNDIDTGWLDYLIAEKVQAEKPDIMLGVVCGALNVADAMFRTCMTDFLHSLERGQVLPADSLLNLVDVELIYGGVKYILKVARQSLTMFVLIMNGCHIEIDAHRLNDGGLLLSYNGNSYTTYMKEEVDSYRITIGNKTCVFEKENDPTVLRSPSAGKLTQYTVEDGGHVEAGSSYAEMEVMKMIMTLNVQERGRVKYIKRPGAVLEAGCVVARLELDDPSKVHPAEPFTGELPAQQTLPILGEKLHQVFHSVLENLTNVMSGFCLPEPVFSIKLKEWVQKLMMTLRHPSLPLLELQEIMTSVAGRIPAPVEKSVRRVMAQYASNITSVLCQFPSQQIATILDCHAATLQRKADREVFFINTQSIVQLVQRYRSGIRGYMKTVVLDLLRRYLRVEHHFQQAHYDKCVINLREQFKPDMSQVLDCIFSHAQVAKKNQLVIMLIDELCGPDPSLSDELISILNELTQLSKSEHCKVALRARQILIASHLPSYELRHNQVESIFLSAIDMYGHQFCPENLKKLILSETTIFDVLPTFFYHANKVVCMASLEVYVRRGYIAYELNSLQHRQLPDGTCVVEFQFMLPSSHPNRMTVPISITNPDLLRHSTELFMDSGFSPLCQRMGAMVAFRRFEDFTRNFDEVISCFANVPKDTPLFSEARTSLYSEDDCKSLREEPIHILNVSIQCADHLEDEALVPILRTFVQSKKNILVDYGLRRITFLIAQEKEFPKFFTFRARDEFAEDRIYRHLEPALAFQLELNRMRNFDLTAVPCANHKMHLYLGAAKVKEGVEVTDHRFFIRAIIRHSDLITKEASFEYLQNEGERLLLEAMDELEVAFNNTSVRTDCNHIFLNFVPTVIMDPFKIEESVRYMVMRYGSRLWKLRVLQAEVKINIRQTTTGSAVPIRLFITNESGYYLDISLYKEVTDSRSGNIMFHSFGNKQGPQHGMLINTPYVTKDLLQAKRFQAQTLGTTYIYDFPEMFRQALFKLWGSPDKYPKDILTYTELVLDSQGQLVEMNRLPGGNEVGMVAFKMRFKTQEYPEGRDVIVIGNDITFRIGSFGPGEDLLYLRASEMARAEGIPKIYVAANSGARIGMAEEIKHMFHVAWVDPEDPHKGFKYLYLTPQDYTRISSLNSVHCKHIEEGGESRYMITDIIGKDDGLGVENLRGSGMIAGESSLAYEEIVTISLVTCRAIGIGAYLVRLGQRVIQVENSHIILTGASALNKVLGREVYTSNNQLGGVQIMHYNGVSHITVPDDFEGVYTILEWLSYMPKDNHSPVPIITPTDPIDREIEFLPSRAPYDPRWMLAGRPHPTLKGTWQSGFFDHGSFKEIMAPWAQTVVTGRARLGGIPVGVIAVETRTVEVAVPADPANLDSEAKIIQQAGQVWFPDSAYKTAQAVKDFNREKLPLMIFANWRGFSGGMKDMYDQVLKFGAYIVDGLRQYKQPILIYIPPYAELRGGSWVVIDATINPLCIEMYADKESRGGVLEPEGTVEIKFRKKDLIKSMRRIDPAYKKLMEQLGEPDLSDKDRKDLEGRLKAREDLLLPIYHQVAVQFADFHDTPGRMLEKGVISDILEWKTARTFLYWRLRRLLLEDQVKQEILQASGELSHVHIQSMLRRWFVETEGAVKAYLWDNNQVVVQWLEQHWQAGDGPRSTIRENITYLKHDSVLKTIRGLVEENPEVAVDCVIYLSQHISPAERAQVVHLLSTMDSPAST

Regarding `CO[C@H]1CCCC[C@@H](c2ccccc2)OC(=O)[C@@H](C)[C@@]2(O)O[C@H]([C@@H](C)[C@H](O)[C@H]2OC)[C@@H](C)/C=C/[C@H]1OC(=O)CCC1=[N+]2C(=Cc3c(C)cc(C)n3[B-]2(F)F)C=C1`, the pKd was 8.52.
